Converted amounts (≈) assume the structure as drawn.
What was measured:
E. faecalis ATCC 29212 = assay: MIC, broth microdilution, E. faecalis ATCC 29212; type: cell-based; conditions: Enterococcus faecalis, ATCC29212
Method: (§1) Bacteria were cultured in cation-adjusted Mueller Hinton Broth (for strains in Tables 1-3) or Brain Heart Infusion broth (for Enterococcus faecium) or Tryptic Soy Broth (all other bacteria) in a 96-well plate at 37° C. for at least 20 hours. The MIC was classified as the lowest concentration where no visual growth of bacteria was observed. The minimum bactericidal concentration (MBC) was tested by spotting 4 μL from wells with no growth onto Tryptic Soy Agar (TSA) plates. Plates were incubated at 37° C. for at least 18 hours before recording the MBC.

VRE ATCC 51575 = assay: MIC, broth microdilution, VRE ATCC 51575; type: cell-based; conditions: Enterococcus
Method: as §1

[1] = test system: C. difficile NR-13435 (isolate 9); assay: MIC against C. difficile NR-13435 (isolate 9); type: cell-based; conditions: Clostridioides difficile; read-out: MIC C. difficile NR-13435 (isolate 9)
Method: as §1

C. difficile ATCC 43255 = assay: MIC against C. difficile ATCC 43255; type: cell-based; conditions: Clostridioides difficile, ATCC43255; read-out: MIC C. difficile ATCC 43255
Method: as §1

[2] = test system: Neisseria gonorrhea strain 181; assay: MIC against Neisseria gonorrhea strain 181; type: cell-based
Method: as §1

[3] = test system: C. difficile NR-32895 (P19); assay: MIC against C. difficile NR-32895 (P19); type: cell-based; conditions: Clostridioides difficile; read-out: MIC C. difficile NR-32895 (P19)
Method: as §1

[4] = test system: C. difficile NR-13432 (isolate 6); assay: MIC against C. difficile NR-13432 (isolate 6); type: cell-based; conditions: Clostridioides difficile; read-out: MIC C. difficile NR-13432 (isolate 6)
Method: as §1

S. aureus = assay: MIC, broth microdilution, S. aureus; type: cell-based; conditions: Staphylococcus aureus
Method: as §1

[5] = test system: L. monocytogenes ATCC 19115; assay: MIC, broth microdilution, L. monocytogenes ATCC 19115; type: cell-based; conditions: Listeria monocytogenes, ATCC19115
Method: as §1

[6] = test system: C. difficile NR-32883 (P2); assay: MIC against C. difficile NR-32883 (P2); type: cell-based; conditions: Clostridioides difficile; read-out: MIC C. difficile NR-32883 (P2)
Method: as §1

[7] = test system: C. difficile NR-32891 (P13); assay: MIC against C. difficile NR-32891 (P13); type: cell-based; conditions: Clostridioides difficile; read-out: MIC C. difficile NR-32891 (P13)
Method: as §1

MRSA ATCC 33592 = assay: MIC, broth microdilution, MRSA ATCC 33592; type: cell-based, methicillin-resistant S. aureus; conditions: Staphylococcus aureus
Method: All MRSA isolates were acquired from BEI Resources. The remaining bacteria were purchased from the American Type Culture Collection (ATCC).
as §1

[8] = test system: C. difficile NR-32904 (P30); assay: MIC against C. difficile NR-32904 (P30); type: cell-based; conditions: Clostridioides difficile; read-out: MIC C. difficile NR-32904 (P30)
Method: as §1

[9] = test system: C. difficile ATCC BAA 1801; assay: MIC against C. difficile ATCC BAA 1801; type: cell-based; conditions: Clostridioides difficile, BAA1801; read-out: MIC C. difficile ATCC BAA 1801
Method: as §1

MRSA USA300 cells = assay: Time-kill assay; type: cell-based
Method: The time-kill analysis was performed as previously described^29. […] Aliquots (100 μL) were collected from each treatment after 0, 2, 4, 8, 12, and 24 hours of incubation at 37° C. and subsequently serially diluted in phosphate-buffered saline (PBS). Bacteria were then transferred to TSA plates and incubated at 37° C. for 18-20 hours before viable CFU/mL was determined (see FIG. 2).

MIC (E. faecalis ATCC 29212) [µg/mL] | MIC (VRE ATCC 51575) [µg/mL] | MIC [1] [µg/mL] | MIC (C. difficile ATCC 43255) [µg/mL] | MIC [2] [µg/mL] | MIC [3] [µg/mL] | MIC [4] [µg/mL] | MIC (S. aureus) [µg/mL] | MIC [5] [µg/mL] | MIC [6] [µg/mL] | MIC [7] [µg/mL] | MIC (MRSA ATCC 33592) [µg/mL] | MIC [8] [µg/mL] | MIC [9] [µg/mL] | SMILES | Bactericidal/Bacteriostatic (MRSA USA300 cells) | Δlog2 CFU/mL (MRSA USA300 cells; MRSA USA300, 3× MIC or 6× MIC, up to 24 hours)
1 (≈ 2.31 µM) | 0.5 (≈ 1.15 µM) | 0.06 (≈ 0.138 µM) | 0.25 (≈ 0.577 µM) | 0.5 (≈ 1.15 µM) | 0.06 (≈ 0.138 µM) | 0.125 (≈ 0.288 µM) | 0.25 (≈ 0.577 µM) | 0.5 (≈ 1.15 µM) | 0.06 (≈ 0.138 µM) | 0.125 (≈ 0.288 µM) | 0.25 (≈ 0.577 µM) | 0.125 (≈ 0.288 µM) | 0.125 (≈ 0.288 µM) | O=C(Nc1nnc(-c2ccc(C(F)(F)F)cc2)o1)c1ccc(SC(F)(F)F)cc1 [HSGN-203, N-(5-(4-(trifluoromethyl)phenyl)-1,3,4-oxadiazol-2-yl)-4-((trifluoromethyl)thio)benzamide] | – | –
– | – | 0.007 (≈ 0.0174 µM) | 0.06 (≈ 0.15 µM) | 2 (≈ 4.98 µM) | 0.06 (≈ 0.15 µM) | 0.03 (≈ 0.0748 µM) | 0.5 (≈ 1.25 µM) | – | 0.003 (≈ 0.00748 µM) | 0.125 (≈ 0.311 µM) | 0.5 (≈ 1.25 µM) | 0.06 (≈ 0.15 µM) | 0.015 (≈ 0.0374 µM) | O=C(Nc1nnc(-c2ccc(F)cc2F)o1)c1ccc(SC(F)(F)F)cc1 [HSGN-219, N-(5-(2,4-difluorophenyl)-1,3,4-oxadiazol-2-yl)-4-((trifluoromethyl)thio)benzamide] | – | –
– | – | – | – | 1 (≈ 2.35 µM) | – | – | 0.0625 (≈ 0.147 µM) | – | – | – | 0.0313 (≈ 0.0735 µM) | – | < 0.003 | O=C(Nc1nnc(-c2cccc(Cl)c2)o1)c1ccc(S(F)(F)(F)(F)F)cc1 [HSGN-259, N-(5-(3-chlorophenyl)-1,3,4-oxadiazol-2-yl)-4-(pentafluoro-k6-sulfaneyl)benzamide] | – | –
– | – | – | – | 2 (≈ 4.62 µM) | – | – | 0.25 (≈ 0.577 µM) | – | – | – | 0.125 (≈ 0.288 µM) | – | – | O=C(Nc1nnc(-c2cccc(C(F)(F)F)c2)o1)c1ccc(SC(F)(F)F)cc1 [HSGN-253, N-(5-(3-(trifluoromethyl)phenyl)-1,3 ,4-oxadiazol-2-yl)-4-((trifluoromethyl)thio)benzamide] | – | –
– | – | – | – | > 128 | – | – | 0.5 (≈ 1.15 µM) | – | – | – | 0.25 (≈ 0.576 µM) | – | 0.015 (≈ 0.0345 µM) | O=C(Nc1nnc(-c2ccc(Cl)cc2Cl)o1)c1ccc(SC(F)(F)F)cc1 [HSGN-248, N-(5-(2,4-dichlorophenyl)-1,3,4-oxadiazol-2-yl)-4-((trifluoromethyl)thio)benzamide] | – | –
– | – | – | – | – | – | – | – | – | – | – | – | – | – | CC(=O)NC[C@H]1CN(c2ccc(N3CCOCC3)c(F)c2)C(=O)O1 [Linezolid, reference compound] | Bacteriostatic | 1.7
1 (≈ 2.57 µM) | 1 (≈ 2.57 µM) | 0.015 (≈ 0.0385 µM) | 0.06 (≈ 0.154 µM) | 0.125 (≈ 0.321 µM) | 0.015 (≈ 0.0385 µM) | 0.03 (≈ 0.077 µM) | 0.25 (≈ 0.641 µM) | 0.5 (≈ 1.28 µM) | 0.007 (≈ 0.018 µM) | 0.06 (≈ 0.154 µM) | 0.25 (≈ 0.641 µM) | 0.015 (≈ 0.0385 µM) | 0.03 (≈ 0.077 µM) | O=C(Nc1nnc(-c2ccc(Cl)s2)o1)c1ccc(OC(F)(F)F)cc1 [HSGN-238, N-(5-(5-chlorothiophen-2-yl)-1,3,4-oxadiazol-2-yl)-4-(trifluoromethoxy)benzamide] | – | –
1 (≈ 2.72 µM) | 1 (≈ 2.72 µM) | 0.03 (≈ 0.0817 µM) | 0.03 (≈ 0.0817 µM) | 0.125 (≈ 0.34 µM) | 0.03 (≈ 0.0817 µM) | 0.06 (≈ 0.163 µM) | 0.5 (≈ 1.36 µM) | 0.5 (≈ 1.36 µM) | 0.03 (≈ 0.0817 µM) | 0.125 (≈ 0.34 µM) | 0.5 (≈ 1.36 µM) | 0.03 (≈ 0.0817 µM) | 0.06 (≈ 0.163 µM) | O=C(Nc1nnc(-c2cccc(F)c2)o1)c1ccc(OC(F)(F)F)cc1 [HSGN-237, N-(5-(3-fluorophenyl)-1,3,4-oxadiazol-2-yl)-4-(trifluoromethoxy)benzamide] | – | –

From patent US20220249447A1, “CF3-, OCF3-, SCF3-, and SF5-Containing Antibacterial Agents” (Purdue Research Foundation, priority 2019, published 2022)
